{
  "source": "patent US12404332B2",
  "about": "“Methods for diagnosing and treating cancers” (Research Development Foundation, priority 2020, dated 2025)",
  "key": {"PD-L1 in ID8agg cells": {"test_system": "PD-L1 in ID8agg cells", "test": "PD-L1 mRNA (RT-qPCR) in ID8agg cells", "assay_type": "cell-based, mouse", "experimental": "(§1) FIGS. 39A-C: CAMB reduces PD-L1 through ubiquitination. FIG. 39A, RT-qPCR for PD-L1 mRNA in OVCAR5 and ID8agg cells treated with (+) or without (−) chlorambucil for 48 hours. (n=4). FIG. 39B, Western blot for PD-L1 protein in OVCAR5 cells with (+) or without (−) MG132 for 6 or 20 hours. (upper panel). PD-L1 expression in OVCAR5 cells treated with chlorambucil 48 hours and/or MG132 for 6 hours (lower panel). FIG. 39C, Ubiquitinated PD-L1 was immunoprecipitated (IP) and subjected to Western blot analysis with anti-ubiquitin (Ub) antibody. Cells were treated with chlorambucil for indicated times prior to ubiquitination analysis.\nQuantitative Real-Time Reverse Transcriptase Polymerase Chain Reaction: Total RNA was isolated from homogenized whole lung tissue with Trizol reagent (Invitrogen) according to manufacturer instructions. Subsequently, cDNA was synthesized with 1-2 μg of total RNA using the, SuperScript III reverse transcriptase (Invitrogen). Quantitative PCR (qPCR) was conducted using the Bio-Rad Real-Time PCR System (Applied Biosystems), amplified with transcript-specific primers with SYBR Green (Thermo Scientific), according to manufacturer instructions. Mouse primers were: Tyr, 5′-[…]-3′ (SEQ ID NO: 1) and 5′-[…]-3′ (SEQ ID NO: 2); gp100, 5′-[…]-3′ (SEQ ID NO: 3) and 5′-ID NO: 4); Trp-2, 5′-[…]-3′ (SEQ […]-3′ (SEQ ID NO: 5) and 5′-[…] […]"}, "ID8agg tumors": {"test_system": "ID8agg tumors", "assay_type": "in vivo, mouse", "text": "Mice and in vivo treatments: Wild-type (WT) C57BL/6 mice NSG were purchased from Jackson Labs (Bar Harbor, ME), bred in our animal facility and used at 7-20 weeks old. All mice were given ad libitum water and food and housed under specific pathogen-free conditions. Mice used here were matched for sex and age in each experiment. 1×10^5 control or PD-L1^KOB16 cells were given subcutaneously (SQ, both sexes). 4×10^6 control or PD-L1^lo ID8agg cells in log growth phase were given intraperitoneally (females only). B16 tumor growth was measured with Vernier calipers and volume was calculated as (length×width^2)/2. Intraperitoneal ID8agg tumor growth was determined by IVIS Lumina Imaging System (Perkin Elmer; Waltham, MA) 15 minutes after i.p. injection of 3 mg of PBS-dissolved d-luciferin K+ (Gold Biotechnology; St. Louis, MO) with 30 second exposures, medium binning, and F/stop=1. Identical regions of interest were drawn over each subject's abdomen and average radiance (photons/see/cm2/sr) was quantified with Living Image software version 4.2. Body weight was measured every week for PD-L1^lo ID8agg mice as a surrogate for tumor growth, and tumors were weighed at end-experiment in confirmation. Survival was determined as >1500 mm^3 for SQ tumors and distress or >20% mouse weight gain for PD-L1^lo ID8agg tumors. Intraperitoneal injection of chlorambucil was given at indicated doses (optimized for each tumor and treatment condition in preliminary assessments not shown) for 3 treatment cycles starting 7 days after tumor cell challenge. Each chlorambucil cycle was 5 consecutive days of a single injection followed by two days of rest. αPD-L1 (clone 10F.9G2) or respective isotype control was injected intraperitoneally at 100 μg/mouse every 5 days starting on day 7 after tumor challenge for times indicated."}, "PD-L1 in OVCAR5 cells": {"test_system": "PD-L1 in OVCAR5 cells", "test": "PD-L1 mRNA, protein and ubiquitination in OVCAR5 cells", "assay_type": "cell-based, human", "experimental": "as §1\nWestern blotting and immunoprecipitation: To prepare whole cell lysates, cells were harvested and lysed in RIPA (radioimmunoprecipitation assay) buffer plus 1 mM phenylmethylsulphonyl fluoride and Halt protease/phosphatase inhibitor cocktail (Thermo Scientific) at 4° C. Protein concentrations were measured by BCA Protein Assay Kit (Thermo Scientific). Protein was run on precast 4-15% sodium dodecyl sulfate polyacrylamide gels (Bio-Rad), transferred to polyvinylidene fluoride membranes (GE Water and Process Technologies), and then blocked in 5% non-fat milk for 1 hour at room temperature. The membranes were then incubated with 1:1000 diluted primary antibodies against indicated proteins (Cell Signaling). Specific antibody binding was detected by chemiluminescence using Western Lightening Plus regent (Perkin Elmer). Cells for (co) immunoprecipitation experiments were seeded in 15-cm dishes and cultured as described, using 6 million cells per immunoprecipitation reaction. For protein ubiquitination, cells were lysed in denaturing buffer (50 mM Tris-HCl, 0.5 mM EDTA and 1% SDS) followed by heating at 95° C. for 10 minutes and then quenched with 9 volumes of quenching buffer (0.5% Triton X-100, 20 mM Tris-HCl (pH 8.0), 137 mM NaCl, 10% glycerol, 2 mM EDTA). Protease inhibitor cocktail (Roche) was added fresh to all buffers. Cell lysates were incubated on a rotator for 30 minutes at 4° C., and then centrifuged at 20,000 g for 15 minutes at 4° C. Supernatants were subsequently incubated with anti-PD-L1 antibody overnight and processed using Dynabeads Protein G for Immunoprecipitation (Thermo Fisher Scientific). The final eluate was processed and Western blotting was performed.\nQuantitative Real-Time Reverse Transcriptase Polymerase Chain Reaction: Total RNA was isolated from homogenized whole lung tissue with Trizol reagent (Invitrogen) according to manufacturer instructions. […] Quantitative PCR (qPCR) was conducted using the Bio-Rad Real-Time PCR System (Applied Biosystems), amplified with transcript-specific primers with SYBR Green (Thermo Scientific), according to manufacturer instructions. […]"}, "ID8agg cells": {"test_system": "ID8agg cells", "test": "Tumor-initiating cell (TIC) flow cytometry, ID8agg cells", "assay_type": "cell-based, mouse"}, "[1]": {"test_system": "PD-1 and β2M on OVCAR5 (human ovarian) cells", "test": "PD-1 and B2M expression on OVCAR5 cells", "assay_type": "cell-based", "experimental": "Tumor and ascites were collected for flow cytometry analyses. Summary graph of CD45-PD-L1 cell percentage and MFI. FIG. 33D, PD-1 and B2M expression on OVCAR5 (human ovarian) cells treated with (+) or without (−) chlorambucil for 48 hours.\nFlow cytometry: Mice were sacrificed by cervical dislocation after induction of deep isoflurane anesthesia. ID8agg tumors were collected and cells were stained as described (Derup et al., 2020) using LSR II hardware and analyzed by FACS Diva (BD Bioscience) or Flow Jo software (Flow Jo, LLC). Anti-mouse (clone 10F.9G2) and human (clone 29E.2A3) PD-L1 [both PE/Cy7, Cat #124314 (mouse) 329718 (human)] were matched with isotype control. Apoptosis assessment used Annexin V and propidium iodide (Thermo Scientific) per manufacturer instruction."}},
  "data": [
    {"compound": "O=C(O)CCCc1ccc(N(CCCl)CCCl)cc1", "note": "[chlorambucil]", "values": [
      {"measurement": "PD-L1 mRNA", "setting": "PD-L1 in ID8agg cells", "value": "significantly reduced"},
      {"measurement": "sensitization of ID8agg to αPD-L1", "setting": "ID8agg tumors; CAMB dose ineffective as a single agent", "value": "sensitized ID8agg to αPD-L1"},
      {"measurement": "tumor PD-L1 in vivo", "setting": "ID8agg tumors; ID8agg challenge, ascites", "value": "reduced tumor PD-L1 in ascites"},
      {"measurement": "PD-L1^lo ID8agg growth", "setting": "ID8agg tumors; WT mice, dose and schedule as for ID8agg", "value": "unable to suppress"},
      {"measurement": "single agent efficacy at the dose used for the combination", "setting": "ID8agg tumors; mouse, in vivo", "value": "ineffective as a single agent"},
      {"measurement": "treatment of tumors", "setting": "ID8agg tumors; severely immunodeficient NSG mice, ID8agg", "value": "effectively treated both"},
      {"measurement": "mouse survival", "setting": "ID8agg tumors; wild type mice, ID8agg", "value": "prolonged mouse survival"},
      {"measurement": "tumor volume", "setting": "ID8agg tumors; wild type mice, ID8agg", "value": "significantly reduced tumor volume"},
      {"measurement": "amount of ubiquitinated PD-L1", "setting": "PD-L1 in OVCAR5 cells; Co-IP", "value": "increased"},
      {"measurement": "PD-L1 mRNA", "setting": "PD-L1 in OVCAR5 cells; OVCAR5 cells", "value": "little changed"},
      {"measurement": "CD44^+CD133^+CD24^+ TIC population", "setting": "ID8agg cells", "value": "significantly reduced"},
      {"measurement": "PD-1 and β2M on the cell surface", "setting": "[1]", "value": "Upregulation"}
    ]}
  ]
}
